Source: ChEMBL document CHEMBL5665443, “Enzyme Inhibitor Single Concentration assay results for EUbOPEN Chemogenomics Library” (2024)

Assays:
Settings in all cases: Hit No
[1] = biological target: N-glycosylase/DNA lyase (Homo sapiens) (UniProt O15527);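 further: OGG1 cleavage of a quenched duplex DNA oligonucleotide, coupled to APE1 for strand incision, read as fluorescence at 594 nm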
Description: Inhibition of OGG1 by quantifying inhibition of OGG1-mediated cleavage and dissociation of quenched duplex DNA oligonucleotides, measured as fluorescence at 594 nm. To generate a functional strand incision and increase turn-over this assay is coupled to APE1.

[2] = biological target: T1, Endonuclease 8-like 2 (Homo sapiens) (UniProt Q969S2);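 further: fluorescence at 594 nm reports NEIL2 cutting and release of a quenched double-stranded DNA oligo substrate, reduced signal read as inhibition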
T1 sequence (whole entry): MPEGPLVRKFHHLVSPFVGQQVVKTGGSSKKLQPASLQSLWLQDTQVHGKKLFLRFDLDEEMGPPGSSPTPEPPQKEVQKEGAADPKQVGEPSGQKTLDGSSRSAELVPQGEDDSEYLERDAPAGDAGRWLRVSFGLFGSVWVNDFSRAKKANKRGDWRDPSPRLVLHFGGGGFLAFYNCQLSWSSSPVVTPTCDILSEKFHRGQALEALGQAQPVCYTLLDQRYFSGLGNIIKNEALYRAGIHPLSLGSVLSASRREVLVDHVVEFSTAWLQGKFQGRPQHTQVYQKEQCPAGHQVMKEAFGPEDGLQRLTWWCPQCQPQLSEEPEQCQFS
Description: Inhibition of NEIL2 by quantifying inhibition of NEIL2-mediated cleavage and dissociation of quenched duplex DNA oligonucleotides, measured as fluorescence at 594 nm.

[3] = biological target: G/T mismatch-specific thymine DNA glycosylase (Homo sapiens) (UniProt Q13569);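 further: human TDG cleavage of quenched duplex DNA oligonucleotides coupled to APE1, strand release read as fluorescence at 594 nm, inhibition of TDG activity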
Description: Inhibition of TDG by quantifying inhibition of TDG-mediated cleavage and dissociation of quenched duplex DNA oligonucleotides, measured as fluorescence at 594 nm. To generate a functional strand incision and increase turn-over this assay is coupled to APE1.

[4] = biological target: T2, Adenine DNA glycosylase (Homo sapiens) (UniProt Q9UIF7);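 further: human MUTYH activity read as 594 nm fluorescence from cleavage and release of a quenched DNA duplex, coupled with APE1 for strand incision, lower signal meaning inhibition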
T2 sequence (whole entry): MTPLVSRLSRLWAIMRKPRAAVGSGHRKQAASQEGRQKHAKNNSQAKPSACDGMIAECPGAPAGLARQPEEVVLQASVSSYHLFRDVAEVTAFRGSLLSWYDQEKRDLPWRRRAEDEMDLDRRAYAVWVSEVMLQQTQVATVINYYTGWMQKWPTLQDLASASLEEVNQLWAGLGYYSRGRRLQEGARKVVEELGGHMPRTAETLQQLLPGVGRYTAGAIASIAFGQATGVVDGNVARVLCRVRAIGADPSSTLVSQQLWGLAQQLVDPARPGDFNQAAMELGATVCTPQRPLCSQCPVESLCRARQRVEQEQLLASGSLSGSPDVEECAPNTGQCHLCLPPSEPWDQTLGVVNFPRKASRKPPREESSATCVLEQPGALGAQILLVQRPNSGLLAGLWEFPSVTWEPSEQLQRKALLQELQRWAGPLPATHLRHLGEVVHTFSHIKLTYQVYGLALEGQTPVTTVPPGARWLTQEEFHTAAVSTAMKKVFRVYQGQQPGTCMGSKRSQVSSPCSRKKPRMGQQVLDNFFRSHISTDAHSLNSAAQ
Description: Inhibition of MUTYH by quantifying inhibition of MUTYH-mediated cleavage and dissociation of quenched duplex DNA oligonucleotides, measured as fluorescence at 594 nm. To generate a functional strand incision and increase turn-over this assay is coupled to APE1.

[5] = biological target: Endonuclease 8-like 1 (Homo sapiens) (UniProt Q96FI4);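 further: fluorescence at 594 nm from quenched duplex DNA oligonucleotides released by NEIL1 cleavage and strand separation, reported as reduction of this enzyme activity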
Description: Inhibition of NEIL1 by quantifying inhibition of NEIL1-mediated cleavage and dissociation of quenched duplex DNA oligonucleotides, measured as fluorescence at 594 nm.

[6] = biological target: T3, Endonuclease III-like protein 1 (Homo sapiens) (UniProt P78549);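 further: enzyme assay tracking NTHL1 cutting and release of a quenched double-stranded DNA oligo substrate, read as fluorescence at 594 nm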
T3 sequence (whole entry): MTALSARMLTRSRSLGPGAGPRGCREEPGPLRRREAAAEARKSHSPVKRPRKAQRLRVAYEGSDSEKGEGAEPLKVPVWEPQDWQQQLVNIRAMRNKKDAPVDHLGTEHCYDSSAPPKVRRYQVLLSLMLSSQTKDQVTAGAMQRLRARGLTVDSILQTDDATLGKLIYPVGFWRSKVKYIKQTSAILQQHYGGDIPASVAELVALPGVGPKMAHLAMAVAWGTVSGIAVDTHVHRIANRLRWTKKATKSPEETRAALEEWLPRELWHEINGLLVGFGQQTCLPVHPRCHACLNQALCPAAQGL
Description: Inhibition of NTHL1 by quantifying inhibition of NTHL1-mediated cleavage and dissociation of quenched duplex DNA oligonucleotides, measured as fluorescence at 594 nm.

[7] = biological target: Uracil-DNA glycosylase (Homo sapiens) (UniProt P13051);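 further: UNG excision on a quenched double-stranded DNA oligo probe, with APE1 added for strand incision and turnover, read as fluorescence at 594 nm as strands separate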
Description: Inhibition of UNG by quantifying inhibition of UNG-mediated cleavage and dissociation of quenched duplex DNA oligonucleotides, measured as fluorescence at 594 nm. To generate a functional strand incision and increase turn-over this assay is coupled to APE1.

[8] = biological target: T4, Single-strand selective monofunctional uracil DNA glycosylase (Homo sapiens) (UniProt Q53HV7);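 further: enzymatic SMUG1 assay coupled with APE1, reading fluorescence at 594 nm released when a quenched double-stranded DNA oligonucleotide substrate is cleaved and separated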
T4 sequence (whole entry): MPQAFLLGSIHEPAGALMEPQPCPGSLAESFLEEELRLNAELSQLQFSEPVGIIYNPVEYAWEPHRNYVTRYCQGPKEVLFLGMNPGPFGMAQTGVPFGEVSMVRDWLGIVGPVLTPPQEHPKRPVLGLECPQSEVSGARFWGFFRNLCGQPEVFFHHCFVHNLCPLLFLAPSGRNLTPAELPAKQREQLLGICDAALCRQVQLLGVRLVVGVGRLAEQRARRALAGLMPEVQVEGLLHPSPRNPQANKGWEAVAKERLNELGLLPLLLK
Description: Inhibition of SMUG1 by quantifying inhibition of SMUG1-mediated cleavage and dissociation of quenched duplex DNA oligonucleotides, measured as fluorescence at 594 nm. To generate a functional strand incision and increase turn-over this assay is coupled to APE1.

[9] = biological target: Methyl-CpG-binding domain protein 4 (Homo sapiens) (UniProt O95243);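 further: MBD4 activity read as fluorescence at 594 nm from cleavage and release of a quenched duplex DNA oligonucleotide, with APE1 coupled to incise the strand and raise turnover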
Chain of Methyl-CpG-binding domain protein 4 (Homo sapiens) (O95243 whole entry, the tested form may be a part): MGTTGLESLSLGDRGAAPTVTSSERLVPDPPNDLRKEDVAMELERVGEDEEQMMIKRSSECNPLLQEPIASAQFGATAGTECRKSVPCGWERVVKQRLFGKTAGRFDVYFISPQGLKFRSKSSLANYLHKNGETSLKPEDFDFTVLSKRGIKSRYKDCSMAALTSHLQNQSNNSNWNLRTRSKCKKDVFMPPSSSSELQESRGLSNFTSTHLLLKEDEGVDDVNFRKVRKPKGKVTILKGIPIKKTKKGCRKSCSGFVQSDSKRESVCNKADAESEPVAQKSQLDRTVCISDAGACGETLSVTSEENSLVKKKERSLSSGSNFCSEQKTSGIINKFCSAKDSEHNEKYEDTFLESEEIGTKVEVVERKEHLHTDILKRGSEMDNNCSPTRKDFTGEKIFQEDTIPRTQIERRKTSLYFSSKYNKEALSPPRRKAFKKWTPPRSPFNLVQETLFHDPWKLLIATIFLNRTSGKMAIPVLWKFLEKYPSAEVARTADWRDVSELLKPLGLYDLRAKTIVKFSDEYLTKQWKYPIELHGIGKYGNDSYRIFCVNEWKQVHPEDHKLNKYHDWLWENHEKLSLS
Description: Inhibition of MBD4 by quantifying inhibition of MBD4-mediated cleavage and dissociation of quenched duplex DNA oligonucleotides, measured as fluorescence at 594 nm. To generate a functional strand incision and increase turn-over this assay is coupled to APE1.

Chain of G/T mismatch-specific thymine DNA glycosylase (Homo sapiens) (Q13569 whole entry): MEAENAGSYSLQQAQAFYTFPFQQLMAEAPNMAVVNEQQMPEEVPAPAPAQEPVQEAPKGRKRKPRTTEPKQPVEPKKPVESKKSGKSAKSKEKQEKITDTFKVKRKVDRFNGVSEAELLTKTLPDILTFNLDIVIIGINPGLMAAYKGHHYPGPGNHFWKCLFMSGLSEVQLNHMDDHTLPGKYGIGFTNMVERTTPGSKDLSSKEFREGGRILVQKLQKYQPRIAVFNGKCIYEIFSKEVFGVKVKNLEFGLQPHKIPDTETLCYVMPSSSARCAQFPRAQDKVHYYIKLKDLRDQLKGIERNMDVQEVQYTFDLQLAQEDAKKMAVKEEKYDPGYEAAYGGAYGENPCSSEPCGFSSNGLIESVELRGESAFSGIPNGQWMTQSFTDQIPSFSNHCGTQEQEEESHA
Chain of N-glycosylase/DNA lyase (Homo sapiens) (O15527 whole entry): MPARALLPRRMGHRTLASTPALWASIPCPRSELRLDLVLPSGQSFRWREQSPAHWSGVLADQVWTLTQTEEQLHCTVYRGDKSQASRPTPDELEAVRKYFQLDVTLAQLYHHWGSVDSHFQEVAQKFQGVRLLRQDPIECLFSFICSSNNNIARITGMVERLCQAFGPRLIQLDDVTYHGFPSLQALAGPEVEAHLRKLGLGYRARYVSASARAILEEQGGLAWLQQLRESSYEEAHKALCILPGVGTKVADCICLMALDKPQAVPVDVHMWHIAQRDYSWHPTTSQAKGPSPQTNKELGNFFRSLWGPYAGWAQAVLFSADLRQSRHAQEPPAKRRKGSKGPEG
Chain of Endonuclease 8-like 1 (Homo sapiens) (Q96FI4 whole entry): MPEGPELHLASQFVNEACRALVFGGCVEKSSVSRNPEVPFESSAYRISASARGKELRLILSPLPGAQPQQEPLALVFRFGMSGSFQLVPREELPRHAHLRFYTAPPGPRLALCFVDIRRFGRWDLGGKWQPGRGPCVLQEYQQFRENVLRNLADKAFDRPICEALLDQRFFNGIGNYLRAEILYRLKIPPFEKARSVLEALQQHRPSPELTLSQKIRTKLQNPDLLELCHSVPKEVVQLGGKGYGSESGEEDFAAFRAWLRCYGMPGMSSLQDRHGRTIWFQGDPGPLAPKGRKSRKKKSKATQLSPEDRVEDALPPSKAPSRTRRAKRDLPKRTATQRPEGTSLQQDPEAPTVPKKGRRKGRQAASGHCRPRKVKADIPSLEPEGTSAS
Chain of Uracil-DNA glycosylase (Homo sapiens) (P13051 whole entry): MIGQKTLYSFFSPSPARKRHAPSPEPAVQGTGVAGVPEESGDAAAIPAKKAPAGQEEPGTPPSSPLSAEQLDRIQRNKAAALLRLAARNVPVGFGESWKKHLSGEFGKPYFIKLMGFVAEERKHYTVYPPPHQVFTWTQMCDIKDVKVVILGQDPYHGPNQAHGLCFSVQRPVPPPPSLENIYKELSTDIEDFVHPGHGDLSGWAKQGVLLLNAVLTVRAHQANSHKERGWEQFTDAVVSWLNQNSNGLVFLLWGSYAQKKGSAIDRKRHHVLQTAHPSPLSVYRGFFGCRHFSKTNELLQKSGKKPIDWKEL

| Structure (SMILES) | inhibition ([1]; Compound Concentration 10.0 uM) [%] | inhibition ([2]; Compound Concentration 10.0 uM) [%] | inhibition ([3]; Compound Concentration 10.0 uM) [%] | inhibition ([4]; Compound Concentration 10.0 uM) [%] | inhibition ([5]; Compound Concentration 10.0 uM) [%] | inhibition ([6]; Compound Concentration 10.0 uM) [%] | inhibition ([7]; Compound Concentration 10.0 uM) [%] | inhibition ([8]; Compound Concentration 10.0 uM) [%] | inhibition ([7]; Compound Concentration 1.0 uM) [%] | inhibition ([9]; Compound Concentration 1.0 uM) [%] | inhibition ([1]; Compound Concentration 1.0 uM) [%] | inhibition ([2]; Compound Concentration 1.0 uM) [%] | inhibition ([3]; Compound Concentration 1.0 uM) [%] | inhibition ([4]; Compound Concentration 1.0 uM) [%] | inhibition ([8]; Compound Concentration 1.0 uM) [%] | inhibition ([5]; Compound Concentration 1.0 uM) [%] | inhibition ([9]; Compound Concentration 10.0 uM) [%] | inhibition ([6]; Compound Concentration 1.0 uM) [%] |
| --- | --- | --- | --- | --- | --- | --- | --- | --- | --- | --- | --- | --- | --- | --- | --- | --- | --- | --- |
| CCC(=O)NC[C@@H]1C[C@H]1c1cccc2c1CCO2 | 1.29 | -7.72 | 4.27 | 2.71 | 4.24 | -4.67 |  |  |  |  |  |  |  |  |  |  |  |  |
| CNc1cc(Oc2cc(C(=O)Nc3cc(N4CCN(C)CC4)cc(C(F)(F)F)c3)ccc2C)ncn1 |  |  | 76.5 | -9.46 |  | 11.9 | -3.12 | -8.61 |  |  |  |  |  |  |  |  |  |  |
| OC[C@H]1O[C@@H](n2cnc3c(NC4CCCC4)ncnc32)[C@H](O)[C@@H]1O |  | 11.2 | -6.42 | 9.75 | 2.61 | 7.05 |  | -9.38 |  |  |  |  |  |  |  |  |  |  |
| CC(=O)NCCc1c(Cc2ccccc2)[nH]c2ccccc12 | -9.93 | 3.51 | 16.3 | 0.533 | 4.1 | 2.66 |  |  |  |  |  |  |  |  |  |  |  |  |
| CNC(=O)Nc1ccc(-c2nc(N3CC4CCC(C3)O4)c3cnn(C4CCC5(CC4)OCCO5)c3n2)cc1 |  |  | 46.1 | 5.83 | 2.52 | 2.88 | 6.27 | 15.7 |  |  |  |  |  |  |  |  |  |  |
| COc1ccccc1CN[C@H]1C2CCN(CC2)[C@H]1C(c1ccccc1)c1ccccc1 | -6.59 | -6.97 | 0.738 | 11.2 | -4.06 | -5.41 | -4.4 |  |  |  |  |  |  |  |  |  |  |  |
| Nc1cnc(N2CCc3cc(S(=O)(=O)Nc4c(F)cc(Cl)cc4F)cc(N4CCCC4=O)c32)nc1 |  |  |  |  |  |  |  |  | -1.59 | 55.9 | 0.18 | -0.999 | 41.3 | -0.378 | 6.61 | -8.47 |  |  |
| CCOC(=O)c1cc2cc(-c3cc(C(=O)NCc4ccc(C(=O)O)cc4)nn3C)ccc2[nH]1 |  |  |  |  |  |  |  |  | -2.54 | 61 | 9.53 | 11.2 | 41.7 | -1.36 | 6.69 | -4.68 |  |  |
| CCC(C)N(C)C(=O)c1cc2ccccc2c(-c2ccccc2Cl)n1 (stereo not given) | 15.1 | 3.59 | 99.2 | 1.15 | -9.53 |  | 7.72 | 22.8 |  |  |  |  |  |  |  |  | 67 |  |
| COc1cc(-c2cncc(-c3ccc(N4CCN(C(C)C)CC4)cc3)c2C)cc(F)c1C(N)=O | 10.3 | 1.85 | 38.5 | -6.43 | 5.68 |  | 5.22 | 31.3 |  |  |  |  |  |  |  |  | 0.764 |  |
| CCCOc1ccc([C@@H]2[C@@H](C(=O)O)[C@H](c3ccc4c(c3)OCO4)CN2CC(=O)Nc2c(CC)cccc2CC)cc1 |  |  |  |  |  |  |  |  | 4.27 | 66.2 | 12 | 9.71 | 57.1 | -8.3 | 18.8 | -3.17 |  |  |
| Cc1nc(Cc2cccc(C(F)(F)F)c2)sc1-c1ccc(C(N)=O)nc1 |  |  |  |  |  |  |  |  | -0.747 | 52 | 0.0328 | -3.29 | 96.5 | -2.4 | 6 | -5.59 |  |  |
| COc1ccc(Oc2cc(NCCC(F)(F)F)c3ncc(-c4ccc(C(=O)NC5CC5)c(C)c4)n3n2)c(F)c1F |  |  | 93.1 | -2.54 |  | -2 | 0.303 | 5.15 |  |  |  |  |  |  |  |  |  |  |
| Cn1cc(Nc2nccc(N3CC4CCC(C3)N4C(=O)[C@@H]3CC3(F)F)n2)cn1 | -0.945 | -8.92 | 35.9 | -8.86 | 0.138 |  | -0.791 | 8.21 |  |  |  |  |  |  |  |  | -6.61 |  |
| OCCOCCN1CCN(C(c2ccccc2)c2ccc(Cl)cc2)CC1 (stereo not given) | -2.03 | -2.98 | 3.31 | -3.56 | 4.39 |  | -3.83 | 2.34 |  |  |  |  |  |  |  |  | 1.54 |  |
| CNC(=O)Nc1ccc2c(c1)[C@@]1(CC2)OC(=O)N(CC(=O)N(Cc2ccc(F)cc2)[C@@H](C)C(F)(F)F)C1=O |  |  |  |  |  |  |  |  | 4.4 | 67.4 | -0.951 | -2.53 | 98.8 | 0.0592 | 22.4 | -6.35 |  |  |
| C=CCN1C[C@H](C(=O)N(CCCN(C)C)C(=O)NCC)C[C@@H]2c3cccc4[nH]cc(c34)C[C@H]21 |  | -3.73 | -7.89 | 1.81 | 10.6 | 1.92 |  | -9.96 |  |  |  |  |  |  |  |  |  |  |
| CCN(Cc1ccc(Cl)cc1)c1ncc(C(=O)NCCCN2CCCC2=O)c(NC2CCCC2)n1 | -2.04 | -8.65 | 63.4 | 3.34 | -2.37 |  | 8.58 | 17.5 |  |  |  |  |  |  |  |  | -8.97 |  |
| CC(=O)Nc1nc(C)c(S(=O)(=O)Nc2ccc(C(O)(C(F)(F)F)C(F)(F)F)cc2)s1 | 9.77 | 2.83 | 98.2 | 13.4 | 1.83 |  | 5.29 | 23 |  |  |  |  |  |  |  |  | 60.1 |  |
| CN(C)C/C=C/C(=O)Nc1cc2c(Nc3ccc(F)c(Cl)c3)ncnc2cc1O[C@H]1CCOC1 |  |  |  |  |  |  |  |  | -1.9 |  |  |  | 46.9 | 19.4 | -1.31 |  |  | 4.97 |
